This note sets out measurements from patent US20200331850A1, “NOVEL SULFONAMIDE CARBOXAMIDE COMPOUNDS” (Inflazome Limited, priority 2017, published 2020).

Where a name gives a salt, the structure may show the parent alone.

In data set [1] the target is NLRP3 (Homo sapiens, UniProt Q96P20). Kind of data set: Human whole blood IL1β release assay (LPS + nigericin, AlphaLisa IL-1β). The class given is cell-based. Details: Plate out 80 μl of whole blood containing 1βg/ml of LPS in 96-well, clear bottom cell culture plate; from tissue; host or cells: human whole blood from healthy donors, LPS-primed and nigericin-stimulated. The note with it: NLRP3 inhibitory activity in human whole blood, IL-1β release, 10 μM nigericin, read-out: HWB IC50. (In general: Alpha assays give light when donor and acceptor beads are brought close together.)

The nature of data set [2]: PK protocol: pharmacokinetic parameters in male Sprague Dawley rats (intravenous or oral). The class given is in vivo. The note with it: plasma, rat; for Vd: read-out: Vdss. How it is done:
Pharmacokinetic parameters were determined in male Sprague Dawley rats (Charles River, UK, 250-350 g; or Vital River Laboratory Animal Technology Co Ltd, Beijing, China, 7-9 weeks old). Animals were individually housed during the study and maintained under a 12 h light/dark cycle.
For intravenous administration, compounds were formulated as a solution in water or DMSO:PBS [10:90] in 2 mL/kg dosing volume and administered via tail vein. For oral administration, compounds were formulated as a solution in DMSO:water [10:90] in 5 mL/kg dosing volume and administered orally.
Serial blood samples (about 120-300 μL) were taken from each animal at each of 8 time-points post dose (0.083, 0.25, 0.5, 1, 2, 4, 8 and 24 h) or at each of 12 time-points post dose (0.03, 0.1, 0.17, 0.25, 0.5, 1, 2, 4, 6, 8, 12 and 24 h) or pre-dose and at each of 9 time-points post dose (0.25, 0.5, 1, 2, 4, 6, 8, 12 and 24 h). Samples were held on ice for no longer than 30 minutes before centrifugation (10,000 rpm (8,385 g) for 3 minutes; or 5,696 rpm (3,000 g) for 15 minutes) for plasma generation. Plasma was frozen on dry ice prior to bioanalysis. PK parameters were generated from LC-MS/MS data using Dotmatics or Phoenix WinNonlin 6.3 software.

The mark [3] stands for this setting: intravenous administration, 1 mg/kg.

Chain of NLRP3 (Q96P20 whole entry): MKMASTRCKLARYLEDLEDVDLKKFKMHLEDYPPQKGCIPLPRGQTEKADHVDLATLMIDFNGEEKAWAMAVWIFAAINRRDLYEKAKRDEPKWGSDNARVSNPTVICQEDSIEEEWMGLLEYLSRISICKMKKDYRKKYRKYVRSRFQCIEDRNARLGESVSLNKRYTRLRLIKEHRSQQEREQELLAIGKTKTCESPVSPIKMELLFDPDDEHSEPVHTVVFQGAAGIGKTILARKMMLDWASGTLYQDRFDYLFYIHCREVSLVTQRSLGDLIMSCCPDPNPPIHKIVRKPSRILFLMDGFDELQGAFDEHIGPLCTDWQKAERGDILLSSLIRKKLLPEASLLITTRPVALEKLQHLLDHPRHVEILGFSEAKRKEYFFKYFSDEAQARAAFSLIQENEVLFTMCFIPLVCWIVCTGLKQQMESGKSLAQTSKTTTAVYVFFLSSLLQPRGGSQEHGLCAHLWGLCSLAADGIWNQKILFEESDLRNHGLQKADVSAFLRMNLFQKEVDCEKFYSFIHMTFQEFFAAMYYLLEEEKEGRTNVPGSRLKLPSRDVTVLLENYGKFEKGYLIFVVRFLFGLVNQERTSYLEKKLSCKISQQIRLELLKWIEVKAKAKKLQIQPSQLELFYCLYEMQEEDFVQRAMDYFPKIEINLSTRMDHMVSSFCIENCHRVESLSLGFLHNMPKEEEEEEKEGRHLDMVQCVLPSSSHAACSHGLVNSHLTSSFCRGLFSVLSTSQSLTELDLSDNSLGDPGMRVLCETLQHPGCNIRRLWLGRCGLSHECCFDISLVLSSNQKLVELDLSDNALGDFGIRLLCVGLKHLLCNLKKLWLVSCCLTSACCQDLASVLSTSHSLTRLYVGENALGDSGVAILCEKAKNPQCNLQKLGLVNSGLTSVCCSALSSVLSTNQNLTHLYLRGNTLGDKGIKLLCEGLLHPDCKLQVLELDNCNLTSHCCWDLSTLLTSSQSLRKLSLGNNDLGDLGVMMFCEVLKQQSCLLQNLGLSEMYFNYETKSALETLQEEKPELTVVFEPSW

Turning to `O=C(Nc1c2c(cc3c1CCC3)CCC2)NS(=O)(=O)CCN1CCC1` [Example 29, 2-(Azetidin-1-yl)-N-((1,2,3,5,6,7-hexahydro-s-indacen-4-yl)carbamoyl)ethane-1-sulfonamide, Potassium Salt], the IC50 in data set [1] was not above 1 µM. In data set [2] (setting [3]), the AUC was found to be 2780 ng·h/mL, the clearance stood at 6 mL/min/kg, the half-life was 1.3 h and the Vd worked out at 0.53 L/kg.

Consider `CCN(CC)CCCS(=O)(=O)NC(=O)Nc1c2c(cc3c1CCC3)CCC2` [Example 3, 3-(Diethylamino)-N-((1,2,3,5,6,7-hexahydro-s-indacen-4-yl)carbamoyl)propane-1-sulfonamide, potassium salt], for which the IC50 in data set [1] is not above 1 µM. In addition, in data set [2] (setting [3]), the AUC was found to be 1180 ng·h/mL, the clearance was found to be 14.2 mL/min/kg, the half-life was 1.5 h and the Vd worked out at 0.79 L/kg. In data set [2] (oral administration, 3 mg/kg), the AUC came out at 2270 ng·h/mL, the CL/F is 22.6 mL/min/kg, the Cmax was 819 ng/mL and the Tmax was found to be 0.42 h. In data set [2] (oral administration, 3 mg/kg), the bioavailability came out at 64.1% and the half-life is 1.8 h.

Take `CCN(CC)CCCS(=O)(=O)NC(=O)Nc1c(-c2cccnc2)cc(F)cc1C(C)C` [Example 37, 3-(Diethylamino)-N-((4-fluoro-2-isopropyl-6-(pyridin-3-yl)phenyl)carbamoyl)propane-1-sulfonamide]: in data set [1], the IC50 is not above 1 µM. Besides, in data set [2] (setting [3]), the AUC worked out at 591 ng·h/mL, the clearance was determined as 28.2 mL/min/kg, the half-life was 0.9 h and the Vd came out at 0.55 L/kg.

In the case of `CN(C)CCCS(=O)(=O)NC(=O)Nc1c2c(cc3c1CCC3)CCC2` [Example 8, 3-(Dimethylamino)-N-((1,2,3,5,6,7-hexahydro-s-indacen-4-yl)carbamoyl)propane-1-sulfonamide, potassium salt], the IC50 in data set [1] was not above 1 µM. Also, in data set [2] (setting [3]), the AUC was 2350 ng·h/mL, the clearance is 7.1 mL/min/kg, the half-life was 1.1 h and the Vd amounted to 0.49 L/kg.

One may read the IC50 as the concentration needed to halve the response being measured. The term AUC denotes the area under the concentration-time curve, a measure of exposure. Low values mean low exposure, high ones high exposure. A word on the half-life: it is the time in which the quantity being followed falls by half. High values mean slow decline, low ones rapid decline. What is called CL/F is clearance divided by bioavailability, as obtained after extravascular dosing. By Cmax is commonly meant the highest concentration seen after dosing. As a reminder, the Tmax is the time at which the peak concentration occurs. As usually defined, the bioavailability is dose-corrected exposure relative to a reference, in per cent. Lower therefore signals poor availability.
